Measured values published in the supplement of paper PMC10307832.

How the values were obtained:
Assay in all cases: relative viability (nuclei count vs DMSO), 5 days (fraction); higher = more cells survive
QS11 + Lapatinib = compound: C1CC2=C(C1)C=C(C=C2)OC3=NC(=C4C(=N3)N(C=N4)CC5=CC=C(C=C5)C6=CC=CC=C6)N[C@@H](CC7=CC=CC=C7)CO [QS11] + CS(=O)(=O)CCNCc1ccc(-c2ccc3ncnc(Nc4ccc(OCc5cccc(F)c5)c(Cl)c4)c3c2)o1 [Lapatinib] (partner 2 µM)
Method in brief: (§1)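 Cells from lung cancer lines were seeded into 1536-well plates and, one day later, dosed by pin tool. Treatments were either a single drug or a fixed dose of an anchor drug with five library-drug doses (not always all listed) in √10 steps. After 5 days, nuclei were stained in a one-step fixation (final 0.05% Triton X-100, 1% formaldehyde, 1 ug/ml Hoechst) and counted on 4× images, and relative viability is the treated-to-vehicle nuclei ratio, as the median of duplicate plates.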

AZ628 + Trametinib = compound: CC1=C(C=C(C=C1)NC(=O)C2=CC(=CC=C2)C(C)(C)C#N)NC3=CC4=C(C=C3)N=CN(C4=O)C [AZ628] + CC(=O)Nc1cccc(-n2c(=O)n(C3CC3)c(=O)c3c(Nc4ccc(I)cc4F)n(C)c(=O)c(C)c32)c1 [Trametinib] (partner 0.02 µM)
Method in brief: as §1

AZ628 + Lapatinib = compound: CC1=C(C=C(C=C1)NC(=O)C2=CC(=CC=C2)C(C)(C)C#N)NC3=CC4=C(C=C3)N=CN(C4=O)C [AZ628] + CS(=O)(=O)CCNCc1ccc(-c2ccc3ncnc(Nc4ccc(OCc5cccc(F)c5)c(Cl)c4)c3c2)o1 [Lapatinib] (partner 2 µM)
Method in brief: as §1

AZ628 + Dasatinib = compound: CC1=C(C=C(C=C1)NC(=O)C2=CC(=CC=C2)C(C)(C)C#N)NC3=CC4=C(C=C3)N=CN(C4=O)C [AZ628] + Cc1nc(Nc2ncc(C(=O)Nc3c(C)cccc3Cl)s2)cc(N2CCN(CCO)CC2)n1 [Dasatinib] (partner 0.075 µM)
Method in brief: as §1

Cell Line	relative viability (QS11 + Lapatinib; first compound 0.08 µM)	relative viability (QS11 + Lapatinib; first compound 0.253 µM)	relative viability (QS11 + Lapatinib; first compound 0.8 µM)	relative viability (QS11 + Lapatinib; first compound 2.53 µM)	relative viability (QS11 + Lapatinib; first compound 8 µM)	relative viability (AZ628 + Trametinib; first compound 0.08 µM)	relative viability (AZ628 + Trametinib; first compound 0.253 µM)	relative viability (AZ628 + Trametinib; first compound 0.8 µM)	relative viability (AZ628 + Trametinib; first compound 2.53 µM)	relative viability (AZ628 + Trametinib; first compound 8 µM)	relative viability (AZ628 + Lapatinib; first compound 0.08 µM)	relative viability (AZ628 + Lapatinib; first compound 0.253 µM)	relative viability (AZ628 + Lapatinib; first compound 0.8 µM)	relative viability (AZ628 + Lapatinib; first compound 2.53 µM)	relative viability (AZ628 + Lapatinib; first compound 8 µM)	relative viability (AZ628 + Dasatinib; first compound 0.08 µM)	relative viability (AZ628 + Dasatinib; first compound 0.253 µM)	relative viability (AZ628 + Dasatinib; first compound 0.8 µM)	relative viability (AZ628 + Dasatinib; first compound 2.53 µM)	relative viability (AZ628 + Dasatinib; first compound 8 µM)
201T	1.05	0.835	0.834	1.11	0.895	0.709	0.693	0.71	0.667	0.561	1.01	0.988	1.06	1.12	1.18	0.592	0.533	0.53	0.513	0.471
A549	1.04	1.14	0.621	0.886	0.764	–	–	–	–	–	1.13	0.839	0.676	0.835	0.536	–	–	–	–	–
A-427	0.881	1.08	–	1.12	1.07	0.462	0.407	0.353	0.395	0.407	1.1	0.599	0.99	1.06	0.773	0.594	0.472	0.301	0.314	0.153
ABC-1	1.18	1.44	1.16	1.16	1.47	–	–	–	–	–	1.04	1.09	1.08	1.16	0.985	0.592	0.412	0.583	0.516	0.52
BEN	0.555	0.89	0.864	0.781	1.19	1.12	1.01	0.806	1.02	0.783	0.775	0.554	0.661	0.815	0.545	0.348	0.304	0.301	0.508	0.309
CAL-12T	0.631	0.601	0.595	0.652	0.68	0.295	0.248	0.259	0.193	0.305	0.884	–	0.599	0.616	0.573	0.385	0.336	0.255	0.271	0.278
COR-L23	1.1	1.08	0.68	0.582	0.849	0.292	0.237	0.271	0.211	0.271	1.11	1.05	1.04	0.968	0.683	0.499	0.465	0.493	0.447	0.347
COR-L 105	0.38	0.363	0.343	0.412	0.396	0.435	0.401	0.382	0.352	0.36	0.413	0.391	0.366	0.32	0.4	0.358	0.419	0.285	0.312	0.244
Calu-6	1.11	1.07	0.969	1.31	1.12	–	–	–	–	–	1.2	0.981	0.629	0.844	0.222	–	–	–	–	–
ChaGo-K-1	–	–	–	–	–	0.911	0.879	0.881	0.873	0.839	–	–	–	–	–	0.585	0.501	0.287	0.547	0.564
EBC-1	0.233	0.198	0.194	0.211	0.207	–	–	–	–	–	0.219	0.205	0.251	0.22	0.199	–	–	–	–	–
EKVX	0.189	0.167	–	0.216	0.201	0.368	0.227	0.248	0.273	0.195	0.232	0.206	0.216	0.219	0.257	0.537	0.541	0.422	0.346	0.334
EMC-BAC-2	0.927	0.89	0.884	0.984	0.89	0.588	0.442	0.416	0.365	0.43	0.9	0.853	0.817	0.844	0.933	0.303	0.321	0.383	0.373	0.412
EPLC-272H	1.01	0.855	0.953	0.98	0.871	0.26	0.207	0.222	0.189	0.17	0.837	0.88	1.08	0.932	0.54	0.317	0.345	0.398	0.357	0.231
H3255	0.261	0.236	–	0.24	0.234	0.525	0.413	0.384	0.401	0.365	0.258	0.256	0.292	0.269	0.251	0.311	0.362	0.319	0.351	0.252
HARA	0.675	0.643	–	0.708	0.751	0.209	0.168	0.15	0.172	0.356	0.742	0.633	0.57	0.671	0.488	0.322	0.227	0.175	0.247	0.198
HCC-15	0.874	0.952	–	0.883	0.748	0.334	0.291	0.272	0.25	0.243	0.949	0.808	0.713	0.724	0.558	0.642	0.496	0.389	0.404	0.23
HCC-44	1.07	0.936	0.668	0.955	0.888	0.909	0.837	0.566	0.804	0.519	0.982	1.06	1.01	1.02	0.844	–	–	–	–	–
